From publication PMC5424641 (Biomolecules & Therapeutics, 2017)
Where a name gives a salt, the structure may show the parent alone. Read-outs that look alike come from different tables or passages of the source.

Key:
[1] = target: T1, urotensin II receptor (hUT) (Homo sapiens, UniProt Q9UKP6); assay: radioligand binding assay
T1 sequence (Q9UKP6 1-389): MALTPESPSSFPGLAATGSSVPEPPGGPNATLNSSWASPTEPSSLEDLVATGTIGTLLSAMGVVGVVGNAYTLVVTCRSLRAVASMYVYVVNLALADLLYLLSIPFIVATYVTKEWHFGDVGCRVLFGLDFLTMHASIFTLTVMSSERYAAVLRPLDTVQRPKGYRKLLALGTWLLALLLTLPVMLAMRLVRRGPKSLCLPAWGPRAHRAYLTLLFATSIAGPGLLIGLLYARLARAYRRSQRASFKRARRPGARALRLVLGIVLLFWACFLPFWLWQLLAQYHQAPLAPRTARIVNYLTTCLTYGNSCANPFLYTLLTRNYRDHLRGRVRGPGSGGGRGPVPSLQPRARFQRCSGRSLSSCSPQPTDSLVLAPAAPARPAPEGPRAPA

[2] = target: T1, urotensin II receptor (hUT); assay: radioligand binding assay; remark: listed apart in the source

Structure (SMILES)	Ki [1] [nM]	Ki [2] [nM]
O=C(NC1CCN(Cc2ccc(OC3CCNCC3)c(Br)c2)CC1)c1csc2ccccc12 [KR-36996, N-(1-(3-bromo-4-(piperidin-4-yloxy)benzyl)piperidin-4-yl)benzo[b]thiophene-3-carboxamide]	4	–
CN(C(=O)CN1C(=O)COc2cc(Cl)c(Cl)cc21)[C@@H](CN1CCOCC1)c1ccc(-c2ccc(C(=O)O)cc2)cc1 [GSK-1440115, 4′-[(1R)-1-[[(6,7-dichloro-3-oxo-2,3-dihydro-4H-1,4-benzoxazin-4-yl)acetyl](methyl)amino]-2-(4-morpholinyl)ethyl]-4-biphenylcarboxylic acid trifluoroacetate]	–	31
